Laboratory results as given in PMC6837341, “Evolutionarily conserved susceptibility of the mitochondrial respiratory chain to SDHI pesticides and its consequence on the impact of SDHIs on human cultured cells” (PLoS ONE, 2019).
pIC50: −log10 of the molar value. Where two headings read alike, the source gives them in different places.

Tests used:
[1] = biological target: T1, succinate cytochrome c reductase (SDH+CIII) (Botrytis cinerea, UniProt A0A384J5E4+D2IH01+D2IH03); experiment: SCCR activity, Botrytis cinerea mitochondria; type: biochemical
T1 sequence (A0A384J5E4 30-300): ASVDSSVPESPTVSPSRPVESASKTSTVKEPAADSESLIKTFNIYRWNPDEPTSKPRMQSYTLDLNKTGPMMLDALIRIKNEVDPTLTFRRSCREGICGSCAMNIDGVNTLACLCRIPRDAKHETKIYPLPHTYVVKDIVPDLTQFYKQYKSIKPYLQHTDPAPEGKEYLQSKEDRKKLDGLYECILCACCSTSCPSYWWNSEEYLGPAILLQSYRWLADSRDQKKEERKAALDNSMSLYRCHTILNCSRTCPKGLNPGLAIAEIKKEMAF
T1 sequence (D2IH03 46-189): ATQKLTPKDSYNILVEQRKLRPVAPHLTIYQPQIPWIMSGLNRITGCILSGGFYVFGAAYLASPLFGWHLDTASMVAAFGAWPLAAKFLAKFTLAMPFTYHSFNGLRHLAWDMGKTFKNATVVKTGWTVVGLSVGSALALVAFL
T1 sequence (D2IH01 64-192): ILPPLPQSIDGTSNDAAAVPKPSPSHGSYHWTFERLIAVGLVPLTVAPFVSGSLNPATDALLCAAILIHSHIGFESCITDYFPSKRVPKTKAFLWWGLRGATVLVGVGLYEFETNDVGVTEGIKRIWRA
Procedure: The mixed population of B. cinerea fungi used in this study was kindly provided by Dr. Joelle Dupont (Museum National d’Histoire Naturelle, Paris, France). Conidia from Botrytis cinerea were obtained from 15–30 d cultures grown on malt medium agar plates. Mycelial colonies were prepared by seeding conidia from 10 colonies in liquid medium (10 g of glucose, 2 g of KH2PO4, 0.5 g of MgSO47H2O, 1 g of (NH4)2SO4, 2 g of yeast extract and deionized water up to 1 l, pH 6.2). Incubation was performed at 23°C until hyphae totally covered the surface of the bottle. The hyphae (9-cm-diameter disks) were harvested, washed twice with refrigerated distilled water and finally with mitochondria extraction medium containing 20 mM Tris (pH 7.2), 0.25 M sucrose, 40 mM KCl, 2 mM EGTA, 1 mg/ml BSA, and no cysteine. The hyphae were suspended in 150 ml of extraction medium, cut in small pieces (1 cm^2) and then disrupted at high speed for 1×2 sec and at low speed for 2×3 sec using a MultiMoulinex mixer (Moulinex, France). The suspension of disrupted hyphae was then filtered through two layers of nylon cloth (clearance 150 μm). The cloth was washed with 50 ml of extraction medium. After low-speed centrifugation (700 g for 15 min), the mitochondria were collected at 10,000 g for 20 min. The pellet was suspended in 250 μl of extraction medium, aliquoted (± 30 μl) and kept frozen at -80°C.
(§1) RC enzyme activities were spectrophotometrically measured using a pseudo-double-wavelength spectrophotometer (Cary 60, Agilent). Malonate-sensitive succinate quinone dichlorophenolindophenol (DCPIP) reductase (SQDR), as an indicator of the activity of the isolated SDH enzyme (isolated CII), and glycerol-3-phosphate quinone DCPIP reductase (GQDR), as a measure of the activity of the isolated glycerol-3-phosphate dehydrogenase (G3PDH), were assayed as previously described. […] With this aim, we measured the malonate-sensitive succinate cytochrome c reductase (SDH+CIII), glycerol-3-phosphate cytochrome c reductase (G3PDH+CIII) and antimycin-sensitive quinol cytochrome c reductase (CIII) as previously described.
(§2) The effects of eight different SDHIs (up to 500 μM; S2 Fig) were determined on four different biological materials. Because IC50 are known to be affected by the actual absolute activity of the tested enzyme, these IC50 were quantified using similar levels of SDH enzyme activity during the assay. IC50 values were determined using the AAT Bioquest IC50 calculator tool (https://www.aatbio.com/tools/ic50-calculator).

[2] = biological target: succinate cytochrome c reductase (SDH+CIII); experiment: SCCR activity, earthworm homogenate; type: biochemical; conditions: Lumbricus terrestris homogenate
Procedure: L. terrestris individuals (n = 5) were collected manually in a household compost in Epernon (France 28230) and identified by the person (Paule Bénit) in charge of this compost. Before use, the worms were washed 5 times with 1× phosphate-buffered saline. A fresh homogenate was prepared from the segments located between the prostomium and clitellum of the 5 individuals. Tissues were placed in 500 μl of an ice-cold medium consisting of 20 mM Tris (pH 7.2), 0.25 M sucrose, 40 mM KCl, 2 mM EGTA, and 1 mg/ml BSA and homogenized using a 1-ml glass-glass Potter-Elvehjem homogenizer. Low-speed centrifugation at 1,500 g for 5 min allowed heavy debris to be discarded. The supernatant was distributed as 50-μl aliquots and kept frozen at -80°C.
as §1, §2

[3] = according to European regulations; ref European regulations; cited from earlier work
[4] = biological target: succinate cytochrome c reductase (SDH+CIII) (Homo sapiens, UniProt O14521+P21912+Q99643); experiment: Malonate-sensitive succinate cytochrome c reductase (SCCR) activity, freeze-thawed HEK cells; type: biochemical; parameters: the pellets were permeabilized by two freeze-thaw cycles before enzyme assays; endogenous in cells; host or cells: HEK293, freeze-thawed cell pellets; conditions: no exogenous quinone
Procedure: The cells were grown in T75 flasks using 10 ml Dulbecco’s modified Eagle's minimal essential medium (DMEM) either containing 1 or 4.5 g/l glucose, 4 mM glutamine (glutamax; Gibco Thermo Fisher Scientific, MA), 2 mM pyruvate and 200 μM uridine (permissive medium, thereafter referred as GlucoMax) or lacking glucose, pyruvate and uridine but containing 4 mM glutamine (nonpermissive medium, thereafter referred as MitoMax; S1 Table). All media were supplemented with 10% fetal calf serum and 100 U/mL each penicillin and streptomycin. HEK293 human embryonic kidney cells were cultured in DMEM containing 4.5 g/L glucose, 4 mM glutamine, 10% fetal calf serum, 200 μM uridine, 2 mM pyruvate, and 100 U/mL each penicillin and streptomycin [9]. Cell pellets (1,500 g for 5 min) were kept frozen (-80°C), and for biochemical studies, the pellets were permeabilized by two freeze-thaw cycles before enzyme assays.
RC enzyme activities were spectrophotometrically measured using a pseudo-double-wavelength spectrophotometer (Cary 60, Agilent). Malonate-sensitive succinate quinone dichlorophenolindophenol (DCPIP) reductase (SQDR), as an indicator of the activity of the isolated SDH enzyme (isolated CII), and glycerol-3-phosphate quinone DCPIP reductase (GQDR), as a measure of the activity of the isolated glycerol-3-phosphate dehydrogenase (G3PDH), were assayed as previously described. To study the effect of SDHIs on the RC, we had to take into consideration the fact that these inhibitors act through binding to quinone-binding sites in the RC. Accordingly, we observed that the extent of the inhibitory effects of these substances varies with the addition of exogenous quinones (Fig 1). […] With this aim, we measured the malonate-sensitive succinate cytochrome c reductase (SDH+CIII), glycerol-3-phosphate cytochrome c reductase (G3PDH+CIII) and antimycin-sensitive quinol cytochrome c reductase (CIII) as previously described.
as §2

[5] = Botrytis cinerea mitochondria, read-out: IC50 SCCR

succinate cytochrome c reductase (SDH+CIII) (Homo sapiens, UniProt O14521+P21912+Q99643), sequence (P21912 29-280): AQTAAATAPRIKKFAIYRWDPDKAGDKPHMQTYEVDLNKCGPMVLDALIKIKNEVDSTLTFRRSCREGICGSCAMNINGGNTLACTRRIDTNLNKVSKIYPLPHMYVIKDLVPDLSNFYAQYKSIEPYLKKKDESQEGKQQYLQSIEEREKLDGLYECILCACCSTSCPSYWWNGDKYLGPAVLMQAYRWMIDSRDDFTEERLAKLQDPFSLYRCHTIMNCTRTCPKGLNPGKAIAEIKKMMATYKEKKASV
succinate cytochrome c reductase (SDH+CIII) (Homo sapiens, UniProt O14521+P21912+Q99643), sequence (Q99643 30-169): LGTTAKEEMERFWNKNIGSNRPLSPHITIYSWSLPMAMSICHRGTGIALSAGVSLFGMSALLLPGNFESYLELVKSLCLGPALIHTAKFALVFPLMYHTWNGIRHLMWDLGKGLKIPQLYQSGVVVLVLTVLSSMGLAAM
succinate cytochrome c reductase (SDH+CIII) (Homo sapiens, UniProt O14521+P21912+Q99643), sequence (O14521 57-159): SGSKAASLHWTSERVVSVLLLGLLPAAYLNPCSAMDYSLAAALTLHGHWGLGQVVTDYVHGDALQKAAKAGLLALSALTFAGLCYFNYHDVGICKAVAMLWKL
succinate cytochrome c reductase (SDH+CIII) (Homo sapiens, UniProt O14521+P21912+Q99643), sequence (P31040 43-664 partner): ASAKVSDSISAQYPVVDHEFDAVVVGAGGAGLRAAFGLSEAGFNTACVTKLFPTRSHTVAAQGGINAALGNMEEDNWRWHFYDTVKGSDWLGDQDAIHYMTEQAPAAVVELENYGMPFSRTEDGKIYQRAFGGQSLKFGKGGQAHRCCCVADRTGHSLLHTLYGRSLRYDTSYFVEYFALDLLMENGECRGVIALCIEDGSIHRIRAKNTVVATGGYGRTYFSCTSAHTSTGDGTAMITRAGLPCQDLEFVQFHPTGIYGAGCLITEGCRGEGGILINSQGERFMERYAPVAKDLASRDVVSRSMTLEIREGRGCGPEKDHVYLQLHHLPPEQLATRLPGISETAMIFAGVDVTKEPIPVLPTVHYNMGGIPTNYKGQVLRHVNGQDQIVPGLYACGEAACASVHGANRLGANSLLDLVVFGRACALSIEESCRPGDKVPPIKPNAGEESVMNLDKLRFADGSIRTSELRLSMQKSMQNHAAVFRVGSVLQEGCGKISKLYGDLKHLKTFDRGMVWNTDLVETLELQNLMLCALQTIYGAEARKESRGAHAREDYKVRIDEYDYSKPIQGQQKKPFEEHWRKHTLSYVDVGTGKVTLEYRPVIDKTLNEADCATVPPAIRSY

| Structure (SMILES) | pIC50 [1, 5] | pIC50 [2] | ADI (Acceptable Daily Intake) [3] | pIC50 ([4]; n ≥ 3, listed as penflufen, read-out: IC50 SCCR) | pIC50 ([4]; n ≥ 3, read-out: IC50 SCCR) | pIC50 ([4]; n ≥ 3, listed as bixafen, read-out: IC50 SCCR) | pIC50 [1] | pIC50 ([4]; n ≥ 3, listed as isopyrazam, read-out: IC50 SCCR) | pIC50 ([4]; IC50 SCCR, n ≥ 3) |
| --- | --- | --- | --- | --- | --- | --- | --- | --- | --- |
| Cc1nn(C)c(F)c1C(=O)Nc1ccccc1C(C)CC(C)C (stereo not drawn) [Penflufen, penflufen] | 6.89 | 5.95 | 0.04 mg/kg/day | ≥ 6.00 | 5.89 |  |  |  |  |
| Cn1cc(C(=O)Nc2ccc(F)cc2-c2ccc(Cl)c(Cl)c2)c(C(F)F)n1 [Bixafen, bixafen] | 7.15 | 5.22 |  |  | 6.47 | ≥ 6.00 |  |  |  |
| CC(C)Oc1cccc(NC(=O)c2ccccc2C(F)(F)F)c1 [Flutolanil, flutolanil] |  | 6.44 | 0.09 mg/kg/day |  | 4.73 |  | 5.07 |  |  |
| Cn1cc(C(=O)Nc2ccccc2-c2cc(F)c(F)c(F)c2)c(C(F)F)n1 [Fluxapyroxad, fluxapyroxad] | 7.02 | 6.15 |  |  | 5.68 |  |  |  |  |
| CC(C)C1C2CCC1c1c(NC(=O)c3cn(C)nc3C(F)F)cccc12 (stereo not drawn) [Isopyrazam, isopyrazam] | 7.64 | 6.34 | 0.03 mg/kg/day |  | 6.20 |  |  | ≥ 6.00 |  |
| CC(C)CC(C)c1sccc1NC(=O)c1cn(C)nc1C(F)(F)F (stereo not drawn) [Penthiopyrad, penthiopyrad] |  | 6.15 |  |  |  |  | 7.35 |  | 5.43 |
| O=C(Nc1ccccc1-c1ccc(Cl)cc1)c1cccnc1Cl [Boscalid, boscalid] |  | 6.30 |  |  |  |  | 6.10 |  | 5.32 |
